# Read-outs that look alike come from different tables or passages of the source.
# Experiments:
# Assay in all cases: MIC determination by in vitro antifungal assay
# Format in all cases: cell-based, Candida auris
# [1] = system: C. auris strain AR Bank #390 (L)
# Experimental: (§1) The antifungal agent amphotericin B (AmB) was purchased from VWR (Radnor PA, USA). AmB was dissolved in DMSO at a final concentration of 5 mg/mL and was stored at −20° C., protected from light. Candida albicans American Type Culture Collection (ATCC) 10231 (strain A), C. albicans ATCC 64124 (B), and C. albicans ATCC MYA-2876 (C) were obtained from Utah State University. C. albicans ATCC 90819 (D), C. albicans ATCC MYA-2310 (E), C. albicans ATCC MYA-1237 (F), C. albicans ATCC MYA-1003 (G), Candida glabrata ATCC 2001 (H), Candida krusei ATCC 6258 (I), Candida parapsilosis ATCC 22019 (J), Cryptococcus neoformans ATCC MYA-895 (M), Aspergillus terreus ATCC MYA-3633 (N), and Aspergillus flavus ATCC MYA-3631 (0) were obtained from the American Type Culture Collection (ATCC; Manassas, VA, USA). Aspergillus nidulans ATCC 38163 (P) was obtained from University of Kentucky. Clinically derived Aspergillus fumigatus NRRL 163 (Q), A. fumigatus NRRL 5109 (R), and A. fumigatus NRRL 6113 (S) were obtained from Northern Regional Research Laboratory (NRRL). Candida auris 384 (K), C. auris 390 (L), and fungal strains 381-400 (including 10 C. auris (AR Bank #381-390), 3 Candida duobushaemulonii (AR Bank #391, AR Bank #392, and AR Bank #394), 2 Candida haemulonii (AR Bank #393 and AR Bank #395), 1 Kodameae ohmeri (AR Bank #396), 1 C. krusei (AR Bank #397), 1 Candida lusitaniae (AR Bank #398), and 2 Saccharomyces cerevisiae strains (AR Bank #399 and AR Bank #400)) were part of a larger fungal library from the AR Bank maintained by the Centers for Disease Control and Prevention (CDC; Atlanta, GA, USA). Filamentous fungi and yeasts were cultivated at 35° C. in RPMI 1640 medium (with L-glutamine, without sodium bicarbonate, Sigma-Aldrich, St. Louis, MO) buffered to a pH of 7.0 with 0.165 M morpholinepropanesulfonic acid (MOPS) buffer (Sigma-Aldrich). For cytotoxicity assays, HepG2 and the mouse macrophage cell line J774A.1 were obtained from University of Kentucky. The human embryonic kidney cell line, HEK-293, was bought from the ATCC. Mammalian cells were grown in Dulbecco's Modified Eagle's Medium (DMEM) (from VWR) with 10% fetal bovine serum (FBS) (from VWR) and 1% Pen/Strep (from ATCC). Cell lines were cultured at 37° C. with 5% CO2 and passaged by trypsinization with 0.05% trypsin: 0.53 mM EDTA (from Sigma-Aldrich).
# (§2) From the actively growing yeast culture, 100 µL were then transferred to 900 μL of RPMI 1640 medium and re-adjusted to achieve OD600 of 0.12 (˜1×10^6 CFU/mL). The cell suspension was further diluted to achieve 1:100 in RPMI 1640 medium.
# Finally, the activity of these monohydrazides was explored against […] non-Candida strains: Cryptococcus neoformans ATCC MYA-895 (M), Aspergillus terreus ATCC MYA-3633 (N), Aspergillus flavus ATCC MYA-3631 (O), Aspergillus nidulans ATCC 38163 (P), Aspergillus fumigatus NRRL 163 (Q), A. fumigatus NRRL 5109 (R), and A. fumigatus NRRL 6113 (S) (Tables 1A and 1B). The double dilution method was used with concentrations ranging from 0.06 to 31.3 j·tg mL^−1 for monohydrazides 1a-9j, and the commercially available positive antifungal control amphotericin B (AmB).
# C. auris AR Bank #387 = settings: Candidozyma auris; C. auris AR Bank # 387 (Table 2B); read-out: MIC
# Experimental: as §1, §2
# C. auris AR Bank #388 = settings: Candidozyma auris; C. auris AR Bank # 388 (Table 2B); read-out: MIC
# Experimental: as §1, §2
# C. auris AR Bank #381 = settings: Candidozyma auris; C. auris AR Bank # 381 (Table 2B); read-out: MIC
# Experimental: as §1, §2
# C. auris AR Bank #386 = settings: Candidozyma auris; C. auris AR Bank # 386 (Table 2B); read-out: MIC
# Experimental: as §1, §2
# C. auris AR Bank #385 = settings: Candidozyma auris; C. auris AR Bank # 385 (Table 2B); read-out: MIC
# Experimental: as §1, §2
# C. auris AR Bank #383 = settings: Candidozyma auris; C. auris AR Bank # 383 (Table 2B); read-out: MIC
# Experimental: as §1, §2
# C. auris AR Bank #389 = settings: Candidozyma auris; C. auris AR Bank # 389 (Table 2B); read-out: MIC
# Experimental: as §1, §2
# C. auris AR Bank #382 = settings: Candidozyma auris; C. auris AR Bank # 382 (Table 2B); read-out: MIC
# Experimental: as §1, §2
# [2] = Candidozyma auris, strain L = C. auris AR Bank # 0390 (Tables 1A/1B), read-out: MIC
# [3] = Candidozyma auris, C. auris AR Bank # 390 (L) (Table 2B), read-out: MIC
# [4] = strain L = C. auris AR Bank # 0390 (Tables 1A/1B)
smiles,measurement,setting,value
COc1ccc(NNC(=O)c2cccc(Br)n2)cc1 [Compound 6f],MIC,[1]; [2],1.95 µg/mL
O=C(NNc1ccc(F)cc1F)c1nc(F)ccc1F [Compound 8g],MIC,C. auris AR Bank #387,0.98 µg/mL
same,MIC,C. auris AR Bank #388,0.98 µg/mL
same,MIC,C. auris AR Bank #381,1.95 µg/mL
same,MIC,C. auris AR Bank #386,1.95 µg/mL
same,MIC,C. auris AR Bank #385,0.49 µg/mL
same,MIC,C. auris AR Bank #383,1.95 µg/mL
same,MIC,C. auris AR Bank #389,1.95 µg/mL
same,MIC,C. auris AR Bank #382,1.95 µg/mL
same,MIC,[1]; [3],31.3 µg/mL
same,MIC,[1]; [2],1.95 µg/mL
O=C(NNc1ccc(F)cc1)c1ccc(Br)cn1 [Compound 4d],MIC,C. auris AR Bank #387,3.9 µg/mL
same,MIC,C. auris AR Bank #388,1.95 µg/mL
same,MIC,C. auris AR Bank #381,1.95 µg/mL
same,MIC,C. auris AR Bank #386,3.9 µg/mL
same,MIC,C. auris AR Bank #385,1.95 µg/mL
same,MIC,C. auris AR Bank #383,7.8 µg/mL
same,MIC,C. auris AR Bank #389,3.9 µg/mL
same,MIC,C. auris AR Bank #382,1.95 µg/mL
same,MIC,[1]; [3],7.8 µg/mL
same,MIC,[1]; [2],3.9 µg/mL
COc1cccc(NNC(=O)c2ccc(F)cc2F)c1 [Compound 1c],MIC,[1]; [2],1.95 µg/mL
O=C(NNc1cccc(F)c1)c1nc(F)ccc1F [Compound 8a],MIC,[1]; [4],1.95 μg/mL^−1
COc1cccc(NNC(=O)c2ccc(Br)cn2)c1 [Compound 4c],MIC,[1]; [2],0.98 µg/mL
O=C(NNc1cccc(F)c1)c1ccc(F)cn1 [Compound 3a],MIC,[1]; [4],0.98 μg/mL^−1
O=C(NNc1ccc(F)cc1F)c1ccc(F)cc1F [Compound 1g],MIC,[1]; [2],7.8 µg/mL
O=C(NNc1cc(F)ccc1F)c1cnccn1 [Compound 9h],MIC,[1]; [2],1.95 µg/mL

# Reference: patent US20240425464A1, “Substituted Monohydrazides as Potent Antifungal Agents” (University of Kentucky Research Foundation, priority 2023, published 2024)
